The record followed here is patent US7851474B2, “Dipiperazinyl ketones and related analogues” (Neurogen Corporation, priority 2005, dated 2010).

Some results are limits rather than exact numbers.

The target of the first assay is T1, chimeric human H3 receptor (Homo sapiens, UniProt Q9Y5N1, E19D).
T1 construct: made in house; host or cells: Sf9 insect cells (baculovirus infection); P2 membrane preparation
T1 sequence (Q9Y5N1 with tags, fused parts or gaps E19D): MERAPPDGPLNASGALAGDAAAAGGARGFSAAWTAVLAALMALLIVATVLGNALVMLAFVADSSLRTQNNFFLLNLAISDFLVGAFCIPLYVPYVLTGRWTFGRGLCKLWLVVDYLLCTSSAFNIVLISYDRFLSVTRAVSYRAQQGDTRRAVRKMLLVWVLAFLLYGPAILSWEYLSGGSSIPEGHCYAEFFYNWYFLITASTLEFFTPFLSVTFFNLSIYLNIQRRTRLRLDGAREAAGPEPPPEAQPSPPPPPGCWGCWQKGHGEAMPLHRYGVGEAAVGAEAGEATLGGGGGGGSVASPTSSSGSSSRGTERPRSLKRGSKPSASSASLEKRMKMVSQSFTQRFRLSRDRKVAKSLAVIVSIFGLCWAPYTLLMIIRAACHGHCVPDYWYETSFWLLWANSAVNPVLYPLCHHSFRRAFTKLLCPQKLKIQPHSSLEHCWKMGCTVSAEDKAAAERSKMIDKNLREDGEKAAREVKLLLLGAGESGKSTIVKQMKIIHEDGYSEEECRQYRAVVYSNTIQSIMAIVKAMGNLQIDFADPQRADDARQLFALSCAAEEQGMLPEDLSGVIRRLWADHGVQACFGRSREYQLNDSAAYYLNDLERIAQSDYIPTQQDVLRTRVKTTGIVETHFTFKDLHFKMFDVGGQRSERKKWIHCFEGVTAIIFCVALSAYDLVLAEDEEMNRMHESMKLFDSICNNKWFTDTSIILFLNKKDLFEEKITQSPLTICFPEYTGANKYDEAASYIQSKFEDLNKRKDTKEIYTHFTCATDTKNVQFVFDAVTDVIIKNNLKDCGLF
Nature of the assay: Chimeric human H3 receptor screening GTP binding assay (inhibition of histamine-stimulated GTP-gamma35S binding, Example 8). It is filed as biochemical. The settings on record: 1 h; "+" in Ki of Table II; assay of Example 8; read-out: percent inhibition of agonist-induced GTP-gammaS binding to H3. Put shortly: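 Data are percent inhibition of the 1 μM histamine-stimulated GTP-gamma35S (125 pM) binding, after non-specific binding (10 uM GTP-gammaS) is subtracted. Test compound at 4 μM. Incubation was 60 min at room temperature with Sf9 membranes bearing receptor plus G-protein subunits, buffer pH 7.4 with 10 μM GDP, and filtration read-out.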
Background: GTPγS is a poorly hydrolysed GTP analogue; its binding reports G protein activation.
The inhibition is the change of the read-out against control, counted positive when it falls. As for `COc1ccc(OCC(=O)N2CCN(CC(=O)N3CCN(C4CCC4)CC3)CC2)cc1` [Compound 562, 1-cyclobutyl-4-({4-[(4-methoxyphenoxy)acetyl]piperazin-1-yl}acetyl)piperazine], the inhibition at 4 µM was more than 90%.
Still for that read-out and setting: next, `CC(CC(=O)N1CCN(CC(=O)N2CCN(C3CCC3)CC2)CC1)Sc1ccc(Cl)cc1` (centres unmarked) [Compound 482, 1-{3-[(4-chlorophenyl)thio]butanoyl}-4-[2-(4-cyclobutylpiperazin-1-yl)-2-oxoethyl]piperazine]: more than 90%; `CCOc1ccc(CC(=O)N2CCN(CC(=O)N3CCN(C4CCC4)CC3)CC2)cc1OC` [Compound 557, 1-cyclobutyl-4-({4-[(4-ethoxy-3-methoxyphenyl)acetyl]piperazin-1-yl}acetyl)piperazine]: more than 90%; `CCCCn1c(C(=O)N2CCN(CC(=O)N3CCN(C4CCC4)CC3)CC2)cc2ccccc21` [Compound 495, 1-butyl-2-({4-[2-(4-cyclobutylpiperazin-1-yl)-2-oxoethyl]piperazin-1-yl}carbonyl)-1H-indole]: more than 90%.
For the compound `Cc1ccc(C(=O)N2CCN(CC(=O)N3CCN(C4CCC4)CC3)CC2)s1` [Compound 570, 1-cyclobutyl-4-({4-[(5-methyl-2-thienyl)carbonyl]piperazin-1-yl}acetyl)piperazine], the inhibition at 4 µM is more than 90%.
Same read-out and setting: next, `O=C(CN1CCN(C(=O)c2cccnc2Oc2ccccc2)CC1)N1CCN(C2CCC2)CC1` [Compound 542, 1-cyclobutyl-4-({4-[(2-phenoxypyridin-3-yl)carbonyl]piperazin-1-yl}acetyl)piperazine]: more than 90%.
Same read-out and setting: with `Cc1cc(C(=O)N2CCN(CC(=O)N3CCN(C4CCC4)CC3)CC2)nn1C` [Compound 498, 1-cyclobutyl-4-({4-[(1,5-dimethyl-1H-pyrazol-3-yl)carbonyl]piperazin-1-yl}acetyl)piperazine] the figure was more than 90%.

The same assay, now with this note: 1 h; Table II "Ki", symbol "+": assay described in Example 8; read-out: percent inhibition of agonist-induced GTP-gammaS binding to H3.
For `CCn1c(C(=O)N2CCN(CC(=O)N3CCN(C4CCC4)CC3)CC2)cc2ccccc21` [Compound 888, 2-({4-[2-(4-cyclobutylpiperazin-1-yl)-2-oxoethyl]piperazin-1-yl}carbonyl)-1-ethyl-1H-indole], the inhibition at 4 µM was more than 90%.

Still in this assay, the particulars now being: 1 h; Table II, "+" in the column headed Ki; assay of Example 8; read-out: percent inhibition of agonist-induced GTP-gammaS binding to H3.
`O=C(Cc1cccc(C(F)(F)F)c1)N1CCN(CC(=O)N2CCN(C3CCC3)CC2)CC1` [Compound 627, 1-cyclobutyl-4-[(4-{[3-(trifluoromethyl)phenyl]acetyl}piperazin-1-yl)acetyl]piperazine]: the inhibition at 4 µM is more than 90%.
Turning to `O=C(CN1CCN(C(=O)c2ccccc2F)CC1)N1CCN(C2CCC2)CC1` [Compound 706, 1-cyclobutyl-4-{[4-(2-fluorobenzoyl)piperazin-1-yl]acetyl}piperazine], the inhibition at 4 µM was more than 90%.
As for `Cc1ccccc1C(C(=O)N1CCN(CC(=O)N2CCN(C3CCC3)CC2)CC1)C(C)C` (centres unmarked) [Compound 591, 1-cyclobutyl-4-({4-[3-methyl-2-(2-methylphenyl)butanoyl]piperazin-1-yl}acetyl)piperazine], the inhibition at 4 µM is more than 90%.

The assay is the same for the next values; noted with them: 1 h; assay described in Example 8; symbol + in column headed Ki of Table II; read-out: percent inhibition of agonist-induced GTP-gammaS binding to H3.
Turning to `O=C(/C=C/c1cccc(Cl)c1)N1CCN(CC(=O)N2CCN(C3CCC3)CC2)CC1` [Compound 390, 1-[(2E)-3-(3-chlorophenyl)prop-2-enoyl]-4-[2-(4-cyclobutylpiperazin-1-yl)-2-oxoethyl]piperazine], the inhibition at 4 µM is more than 90%.
As to `COc1ccc(Cl)c(OC)c1C(=O)N1CCN(CC(=O)N2CCN(C3CCC3)CC2)CC1` [Compound 294, 1-(3-chloro-2,6-dimethoxybenzoyl)-4-[2-(4-cyclobutylpiperazin-1-yl)-2-oxoethyl]piperazine], the inhibition at 4 µM was more than 90%.
Same read-out and setting: next, `O=C(CN1CCN(C(=O)c2cc3ccccc3s2)CC1)N1CCN(C2CCC2)CC1` [Compound 261, 1-(1-benzothien-2-ylcarbonyl)-4-[2-(4-cyclobutylpiperazin-1-yl)-2-oxoethyl]piperazine]: more than 90%.
